Assay results: patent publication US20220323406A1, “METHODS AND COMPOSITIONS FOR DIFFERENTIATING STEM CELLS” (Massachusetts Institute of Technology, priority 2019, published 2022)

Key:
[1] = system: ENR+CD organoids (ISC to Paneth cell differentiation); assay: Primary screen: basal (non-stimulated) lysozyme secretion LYZ.NS, 2.5-D 384-well ENR+CD organoid differentiation; assay type: cell-based, mouse; details: primary screen; for Z.LYZ.NS: standard z score; for Dose.FC.LYZ.NS: FC vs plate median
Description: (§1) High-throughput screening.

[2] = system: ENR+CD organoids (ISC to Paneth cell differentiation); assay: Primary screen: CCh-stimulated lysozyme secretion LYZ.S, 2.5-D 384-well ENR+CD organoid differentiation; assay type: cell-based, mouse; details: primary screen; for Dose.FC.LYZ.S: FC vs plate median
Description: as §1

ENR+CD organoids = assay: Primary screen: ATP (CellTiter-Glo 3D, CTG) cell number/viability, 2.5-D 384-well ENR+CD organoids; details: primary screen; for Z.CTG: standard z score; for Dose.FC.CTG: FC vs plate median;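 on all read-outs here: compounds given at plating and again on day 3 over a 6-day differentiation from ENR+CV stem-cell-enriched precursors, ATP measured on day 6, plate median as control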

## O=C1[C@H](Cc2ccc(O)cc2)N2C(=O)CCN(C(=O)NCc3ccccc3)[C@H]2CN1Cc1cccc2ccccc12 [ICG-001]
[1]; dose 0.08 uM
  Dose.FC.LYZ.NS (log2 fold change): 0.037
  Z.LYZ.NS (standard z score): 0.324
[1]; dose 0.40 uM
  Dose.FC.LYZ.NS (log2 fold change): 0.037
  Z.LYZ.NS (standard z score): 0.321
[1]; dose 2.00 uM
  Dose.FC.LYZ.NS (log2 fold change): 0.045
  Z.LYZ.NS (standard z score): 0.396
[1]; dose 10.00 uM
  Dose.FC.LYZ.NS (log2 fold change): −0.125
  Z.LYZ.NS (standard z score): −1.093
[2]; dose 0.08 uM
  Dose.FC.LYZ.S (log2 fold change): 0.163
[2]; dose 0.40 uM
  Dose.FC.LYZ.S (log2 fold change): 0.204
[2]; dose 2.00 uM
  Dose.FC.LYZ.S (log2 fold change): 0.017
[2]; dose 10.00 uM
  Dose.FC.LYZ.S (log2 fold change): −0.124
ENR+CD organoids; dose 0.08 uM
  Dose.FC.CTG (log2 fold change): 0.104
  Z.CTG (standard z score): 0.249
ENR+CD organoids; dose 0.40 uM
  Dose.FC.CTG (log2 fold change): 0.104
  Z.CTG (standard z score): 0.248
ENR+CD organoids; dose 2.00 uM
  Dose.FC.CTG (log2 fold change): 0.143
  Z.CTG (standard z score): 0.343
ENR+CD organoids; dose 10.00 uM
  Dose.FC.CTG (log2 fold change): −0.416
  Z.CTG (standard z score): −0.993

## O=C(NNc1ccccc1)c1ccncc1 [PluriSIn #1 (NSC 14613)]
[1]; dose 0.08 uM
  Z.LYZ.NS: 0.720
  Dose.FC.LYZ.NS: 0.083 log2 fold change
[1]; dose 0.40 uM
  Z.LYZ.NS: 0.039
  Dose.FC.LYZ.NS: 0.004 log2 fold change
[1]; dose 2.00 uM
  Z.LYZ.NS: −0.929
  Dose.FC.LYZ.NS: −0.107 log2 fold change
[1]; dose 10.00 uM
  Z.LYZ.NS: −2.475
  Dose.FC.LYZ.NS: −0.284 log2 fold change
[2]; dose 0.08 uM
  Dose.FC.LYZ.S: 0.057 log2 fold change
[2]; dose 0.40 uM
  Dose.FC.LYZ.S: −0.007 log2 fold change
[2]; dose 2.00 uM
  Dose.FC.LYZ.S: −0.133 log2 fold change
[2]; dose 10.00 uM
  Dose.FC.LYZ.S: −0.372 log2 fold change
ENR+CD organoids; dose 0.08 uM
  Z.CTG: −0.349
  Dose.FC.CTG: −0.146 log2 fold change
ENR+CD organoids; dose 0.40 uM
  Z.CTG: −0.226
  Dose.FC.CTG: −0.095 log2 fold change
ENR+CD organoids; dose 2.00 uM
  Z.CTG: −1.035
  Dose.FC.CTG: −0.433 log2 fold change
ENR+CD organoids; dose 10.00 uM
  Z.CTG: −2.038
  Dose.FC.CTG: −0.853 log2 fold change

## OCCn1cc(-c2cnc3nnn(Cc4ccc5ncccc5c4)c3n2)cn1 [PF-04217903]
[1]; dose 0.08 uM
  Z.LYZ.NS: 0.742
  Dose.FC.LYZ.NS: 0.085 log2 fold change
[1]; dose 0.40 uM
  Z.LYZ.NS: 1.404
  Dose.FC.LYZ.NS: 0.161 log2 fold change
[1]; dose 2.00 uM
  Z.LYZ.NS: 1.060
  Dose.FC.LYZ.NS: 0.122 log2 fold change
[1]; dose 10.00 uM
  Z.LYZ.NS: 0.617
  Dose.FC.LYZ.NS: 0.071 log2 fold change
[2]; dose 0.08 uM
  Dose.FC.LYZ.S: 0.110 log2 fold change
[2]; dose 0.40 uM
  Dose.FC.LYZ.S: 0.265 log2 fold change
[2]; dose 2.00 uM
  Dose.FC.LYZ.S: 0.049 log2 fold change
[2]; dose 10.00 uM
  Dose.FC.LYZ.S: 0.127 log2 fold change
ENR+CD organoids; dose 0.08 uM
  Z.CTG: 0.326
  Dose.FC.CTG: 0.136 log2 fold change
ENR+CD organoids; dose 0.40 uM
  Z.CTG: 0.616
  Dose.FC.CTG: 0.258 log2 fold change
ENR+CD organoids; dose 2.00 uM
  Z.CTG: −0.122
  Dose.FC.CTG: −0.051 log2 fold change
ENR+CD organoids; dose 10.00 uM
  Z.CTG: 0.276
  Dose.FC.CTG: 0.116 log2 fold change

## Oc1ccc2ccccc2c1SSc1c(O)ccc2ccccc12 [IPA-3]
[1]; dose 0.08 uM
  Dose.FC.LYZ.NS (log2 fold change): 0.004
  Z.LYZ.NS (standard z score): 0.031
[1]; dose 0.40 uM
  Dose.FC.LYZ.NS (log2 fold change): 0.003
  Z.LYZ.NS (standard z score): 0.028
[1]; dose 2.00 uM
  Dose.FC.LYZ.NS (log2 fold change): −0.001
  Z.LYZ.NS (standard z score): −0.010
[1]; dose 10.00 uM
  Dose.FC.LYZ.NS (log2 fold change): −0.021
  Z.LYZ.NS (standard z score): −0.186
[2]; dose 0.08 uM
  Dose.FC.LYZ.S (log2 fold change): 0.064
[2]; dose 0.40 uM
  Dose.FC.LYZ.S (log2 fold change): −0.031
[2]; dose 2.00 uM
  Dose.FC.LYZ.S (log2 fold change): 0.067
[2]; dose 10.00 uM
  Dose.FC.LYZ.S (log2 fold change): −0.054
ENR+CD organoids; dose 0.08 uM
  Dose.FC.CTG (log2 fold change): 0.219
  Z.CTG (standard z score): 0.524
ENR+CD organoids; dose 0.40 uM
  Dose.FC.CTG (log2 fold change): −0.332
  Z.CTG (standard z score): −0.793
ENR+CD organoids; dose 2.00 uM
  Dose.FC.CTG (log2 fold change): −0.084
  Z.CTG (standard z score): −0.202
ENR+CD organoids; dose 10.00 uM
  Dose.FC.CTG (log2 fold change): −0.054
  Z.CTG (standard z score): −0.128
